# From patent publication US10588315B2, “Fungicidal compositions” (Syngenta Participations AG, priority 2012, dated 2020)
# Where “and” joins values, the source holds several entries; their conditions need not be identical. Equal values may be shown once. Read-outs that look alike come from different tables or passages of the source.
# What was measured:
# Assay type in all cases: cell-based
# Alternaria solani = Alternaria solani / liquid culture; conditions: for inhibition at 0.0031 ppm: 1.001 0.0031 ppm
# Protocol: (§1) Mycelia fragments or conidia suspensions of a fungus, prepared either freshly from liquid cultures of the fungus or from cryogenic storage, were directly mixed into nutrient broth. DMSO solutions of the test compound (max. 10 mg/ml) was diluted with 0.025% Tween20 by factor 50 and 10 μl of this solution was pipetted into a microtiter plate (96-well format). The nutrient broth containing the fungal spores/mycelia fragments was then added to give an end concentration of the tested compound. The test plates were incubated in the dark at 24° C. and 96% rh. The inhibition of fungal growth was determined photometrically and visually after 2-4 days, depending on the pathosystem, and percent antifungal activity relative to the untreated check was calculated.
# (§2) Conidia of the fungus from cryogenic storage were directly mixed into nutrient broth (PDB potato dextrose broth). After placing a (DMSO) solution of test compound into a microtiter plate (96-well format), the nutrient broth containing the fungal spores was added.
# [1] = test system: Monographella nivalis (Microdochium nivale); experiment: Monographella nivalis (Microdochium nivale) / liquid culture; conditions: for inhibition at 0.025 ppm: 1.001 0.0250 ppm; for inhibition at 0.05 ppm: 1.001 0.0500 ppm
# Protocol: as §1, §2
# Fusarium culmorum = Fusarium culmorum / liquid culture
# Protocol: as §1, with “The nutrient broth containing the fungal spores/mycelia fragments was then added to give an end concentration of the tested compound.” left out
# as §2
# [2] = Monographella nivalis, B1.3, read-out: observed % activity
# [3] = Monographella nivalis, B2.3, read-out: observed % activity
# [4] = Monographella nivalis, B5.4, read-out: observed % activity
structure (smiles),measurement,setting,value
"CON(C(=O)c1cn(C)nc1C(F)F)C(C)Cc1c(Cl)cc(Cl)cc1Cl (stereo not drawn) [Compound 1.001, 3-(difluoromethyl)-N-methoxy-1-methyl-N-[1-methyl-2-(2,4,6-trichlorophenyl)ethyl]pyrazole-4-carboxamide]",observed % activity,Alternaria solani; 1.001 0.0004 ppm,11% and 10%
same,observed % activity,Alternaria solani; 1.001 0.0008 ppm,24%
same,observed % activity,Alternaria solani; 1.001 0.0016 ppm,40% and 46%
same,inhibition at 0.0004 ppm,"Alternaria solani; Alternaria solani, 1.001 0.0004 ppm, read-out: observed % activity",9%
same,inhibition at 0.0063 ppm,"Alternaria solani; Alternaria solani, 1.001 0.0063 ppm, read-out: observed % activity",75%
same,inhibition at 0.0008 ppm,"Alternaria solani; Alternaria solani, B1.2, 1.001 0.0008 ppm, read-out: observed % activity",4%
same,inhibition at 0.0016 ppm,"Alternaria solani; Alternaria solani, B1.2, 1.001 0.0016 ppm, read-out: observed % activity",32%
same,inhibition at 0.0031 ppm,"Alternaria solani; Alternaria solani, B1.2, read-out: observed % activity",64%
same,inhibition at 0.0016 ppm,"Alternaria solani; Alternaria solani, B2.2, 1.001 0.0016 ppm, read-out: observed % activity",39%
same,inhibition at 0.0016 ppm,"Alternaria solani; Alternaria solani, B3.2, 1.001 0.0016 ppm, read-out: observed % activity",45%
same,inhibition at 0.0031 ppm,"Alternaria solani; Alternaria solani, B3.2, read-out: observed % activity",66%
same,inhibition at 0.0008 ppm,"Alternaria solani; Alternaria solani, B4.2, 1.001 0.0008 ppm, read-out: observed % activity",29%
same,inhibition at 0.0016 ppm,"Alternaria solani; Alternaria solani, B4.2, 1.001 0.0016 ppm, read-out: observed % activity",47%
same,inhibition at 0.0031 ppm,"Alternaria solani; Alternaria solani, B4.2, read-out: observed % activity",73%
same,inhibition at 0.0008 ppm,"Alternaria solani; Alternaria solani, B5.2, 1.001 0.0008 ppm, read-out: observed % activity",3%
same,inhibition at 0.0016 ppm,"Alternaria solani; Alternaria solani, B5.2, 1.001 0.0016 ppm, read-out: observed % activity",36%
same,inhibition at 0.0031 ppm,"Alternaria solani; Alternaria solani, B5.2, read-out: observed % activity",75%
same,inhibition at 0.0016 ppm,"Alternaria solani; Alternaria solani, B6.2, 1.001 0.0016 ppm, read-out: observed % activity",35%
same,inhibition at 0.0031 ppm,"Alternaria solani; Alternaria solani, B6.2, read-out: observed % activity",71%
same,inhibition at 0.0016 ppm,"Alternaria solani; Alternaria solani, B9.2, 1.001 0.0016 ppm, read-out: observed % activity",37%
same,inhibition at 0.0031 ppm,"Alternaria solani; Alternaria solani, B9.2, read-out: observed % activity",67%
same,observed % activity,[1]; 1.001 0.0016 ppm,4%
same,observed % activity,[1]; 1.001 0.0031 ppm,10% and 6%
same,observed % activity,[1]; 1.001 0.0125 ppm,4%
same,observed % activity,[1]; 1.001 0.1000 ppm,61%
same,observed % activity,[1]; 1.001 0.2000 ppm,90% and 87% and 79%
same,inhibition at 0.004 ppm,"[1]; Monographella nivalis, 1.001 0.004 ppm, read-out: observed % activity",0%
same,inhibition at 0.1 ppm,"[1]; Monographella nivalis, 1.001 0.1000 ppm (Table B54), read-out: observed % activity",22%
same,inhibition at 0.1 ppm,"[1]; Monographella nivalis, 1.001 0.1000 ppm (Table B55), read-out: observed % activity",19%
same,inhibition at 0.2 ppm,"[1]; Monographella nivalis, 1.001 0.2000 ppm, read-out: observed % activity",85%
same,inhibition at 0.0125 ppm,"[1]; Monographella nivalis, B1.3, 1.001 0.0125 ppm, read-out: observed % activity",0%
same,inhibition at 0.025 ppm,[1]; [2],5%
same,inhibition at 0.05 ppm,[1]; [2],45%
same,inhibition at 0.2 ppm,"[1]; Monographella nivalis, B1.3, 1.001 0.2000 ppm, read-out: observed % activity",78%
same,inhibition at 0.025 ppm,[1]; [3],0%
same,inhibition at 0.05 ppm,[1]; [3],26%
same,inhibition at 0.0008 ppm,"[1]; Monographella nivalis, B3.4, 1.001 0.0008 ppm, read-out: observed % activity",1%
same,inhibition at 0.05 ppm,"[1]; Monographella nivalis, B4.3, read-out: observed % activity",15%
same,inhibition at 0.1 ppm,"[1]; Monographella nivalis, B4.3, 1.001 0.1000 ppm, read-out: observed % activity",64%
same,inhibition at 0.025 ppm,[1]; [4],2%
same,inhibition at 0.05 ppm,[1]; [4],9%
same,inhibition at 0.1 ppm,"[1]; Monographella nivalis, B5.4, 1.001 0.1000 ppm, read-out: observed % activity",60%
same,inhibition at 0.0016 ppm,"[1]; Monographella nivalis, B6.3, 1.001 0.0016 ppm, read-out: observed % activity",0%
same,inhibition at 0.0031 ppm,"[1]; Monographella nivalis, B6.3, 1.001 0.0031 ppm, read-out: observed % activity",3%
same,observed % activity,Fusarium culmorum; 1.001 0.0125 ppm,11% and 16% and 7% and 10% and 6%
same,observed % activity,Fusarium culmorum; 1.001 0.0250 ppm,24% and 28% and 34%
same,observed % activity,Fusarium culmorum; 1.001 0.0500 ppm,46% and 54%
same,observed % activity,Fusarium culmorum; 1.001 0.1000 ppm,50% and 56% and 52% and 57%
same,inhibition at 0.0063 ppm,"Fusarium culmorum; Fusarium culmorum, 1.001 0.0063 ppm, read-out: observed % activity",9%
same,inhibition at 0.05 ppm,"Fusarium culmorum; Fusarium culmorum, 1.001 0.0500 ppm (Table B54), read-out: observed % activity",51%
same,inhibition at 0.05 ppm,"Fusarium culmorum; Fusarium culmorum, 1.001 0.0500 ppm, read-out: observed % activity",49%
same,inhibition at 0.1 ppm,"Fusarium culmorum; Fusarium culmorum, 1.001 0.1000 ppm (Table B54), read-out: observed % activity",55%
same,inhibition at 0.1 ppm,"Fusarium culmorum; Fusarium culmorum, 1.001 0.1000 ppm, read-out: observed % activity",58%
same,inhibition at 0.2 ppm,"Fusarium culmorum; Fusarium culmorum, 1.001 0.2000 ppm (Table B54), read-out: observed % activity",60%
same,inhibition at 0.2 ppm,"Fusarium culmorum; Fusarium culmorum, 1.001 0.2000 ppm, read-out: observed % activity",60%
same,inhibition at 0.025 ppm,"Fusarium culmorum; Fusarium culmorum, B3.3, 1.001 0.0250 ppm, read-out: observed % activity",19%
same,inhibition at 0.05 ppm,"Fusarium culmorum; Fusarium culmorum, B3.3, 1.001 0.0500 ppm, read-out: observed % activity",48%
